Measured values: patent US6440691B1, “Melanins with improved ability to inhibit HIV replication” (Large Scale Biology Corporation, priority 1997, dated 2002)
Where a SMILES comes first, the peptide text is derived from it.

Key:
HIV-1 IIIB = assay: Anti-HIV activity: protection of MT-2 cells from viral-induced cytopathic effect, neutral red uptake; type: cell-based; details: Table 2, CPE after three days
Experimental: Dried melanins were analyzed for anti-HIV activity essentially as described by Montefiori, et al., 1988, J. Clin. Microbiol. […] In brief, the antiviral activities of the various melanins and melanin derivatives described in the present examples were measured in 96-well microdilution plates. Two-fold serial dilutions of melanins were made in triplicate in a total of 100 μl growth medium (RPMI-1640 containing 12% host-inactivated fetal bovine serum and 50 μg gentamicin/ml) per well. MT-2 cells (5×10^4) in 100 μl of growth medium were added to each well and incubated for 10 minutes. Fifty microliters of virus (5×10^4 TCID50/50 μl) were then added to all wells except for one row of eight noncytopathic control wells; these received growth medium in place of virus. Viral-induced cytopathic effect (CPE) was quantified three days later by vital dye (neutral red) uptake in remaining viable cells. Neutral red uptake is a linear function of cell viability with A540 of 0.025 to 0.85 corresponding to 2×10^4 to 25×10^4 viable cells/well (Montefiori, et al., 1988). Percent protection is defined as the difference in A540 between test wells (cells+melanin+virus) and virus control wells (cells+virus) divided by the difference in between cell control wells (cells only) and virus control wells.

HIV-1 (111a) = tested on: HIV-1 (111a); set-up: unit not given here; details: Table 1; cited from earlier work
HIV-2 (ROD) = tested on: HIV-2 (ROD); set-up: unit not given here; details: Table 1; cited from earlier work

Row | Compound | Effective Dose 50 EC50 (HIV-1 IIIB) [µg/mL] | 50% inhibitory concentration IC50, HIV-1 (111a) (HIV-1 (111a)) | 50% inhibitory concentration IC50, HIV-2 (ROD) (HIV-2 (ROD))
1 | NCC(=O)N[C@@H](Cc1ccc(O)cc1)C(=O)O [Gly-Tyr] (H-Gly-Tyr-OH) | >50 | – | –
2 | á-cyclodextrin hexasulfate | – | 26.2 | 1.9
3 | á-cyclodextrin tetradecasulfate | – | 0.8 | 1.0
4 | â-cyclodextrin heptasulfate | – | 3.0 | 1.8
5 | ã-cyclodextrin hexadecasulfate | – | 0.2 | 0.4
6 | ã-cyclodextrin octasulfate | – | 0.6 | 1.6
